Where two headings read alike, the source gives them in different places.
Tests used:
IKKα [1] = target: T1, IKKα (Homo sapiens, UniProt O15111); conditions: previous work [6]; read-out: IKKα inhibitory activity (Ki) of previous hit; cited from earlier work
T1 sequence (O15111 1-745): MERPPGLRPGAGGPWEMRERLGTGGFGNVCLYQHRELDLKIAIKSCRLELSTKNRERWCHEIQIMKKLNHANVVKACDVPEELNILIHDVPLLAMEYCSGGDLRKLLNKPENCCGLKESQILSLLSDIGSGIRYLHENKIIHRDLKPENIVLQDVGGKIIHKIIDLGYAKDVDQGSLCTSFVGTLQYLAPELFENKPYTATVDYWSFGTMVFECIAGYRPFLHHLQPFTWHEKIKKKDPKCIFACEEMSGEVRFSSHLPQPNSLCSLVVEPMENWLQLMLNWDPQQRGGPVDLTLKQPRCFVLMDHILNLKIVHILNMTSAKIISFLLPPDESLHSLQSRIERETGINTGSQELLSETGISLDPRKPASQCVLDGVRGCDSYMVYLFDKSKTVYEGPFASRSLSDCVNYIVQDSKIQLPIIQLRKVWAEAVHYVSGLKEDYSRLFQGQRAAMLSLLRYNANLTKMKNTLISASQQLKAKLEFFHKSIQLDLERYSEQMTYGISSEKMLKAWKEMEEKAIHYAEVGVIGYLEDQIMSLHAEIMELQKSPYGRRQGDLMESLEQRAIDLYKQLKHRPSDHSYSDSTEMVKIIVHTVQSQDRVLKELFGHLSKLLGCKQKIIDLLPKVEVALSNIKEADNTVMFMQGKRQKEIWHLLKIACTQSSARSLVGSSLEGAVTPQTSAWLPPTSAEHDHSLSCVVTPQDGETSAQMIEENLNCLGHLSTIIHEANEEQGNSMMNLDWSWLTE

IKKα over IKKβ [2] = conditions: previous work [6]; cited from earlier work
U2OS cells = conditions: cited from earlier work
panel of kinases = assay: kinome profiling at 1 μM; assay type: biochemical
Text: (§1) We profiled three compounds from the series across the kinome (FIG. 11). […] To identify the structural drivers for CDK inhibition, we obtained X-ray crystal structures of 5 y and 6 g SU1336 and SU1349 with CDK-2 (FIG. 12A) to potentially identify possible routes towards introducing selectivity for IKKα over the CDK enzymes as well as IKKβ. […] All three derivatives form complexes with CDK2 with the pyrrolo[2,3 -b]pyridine H-bonding to GK+3 (Leu 83 ) and the aminoindazole projected towards the G-loop (FIG. 12A), forming H-bonds with Glu 51 and Lys 33 at the back of the pocket. The adoption of the 4 SU1253 -type orientation, rather than the flipped pose observed in IKKα, is probably facilitated by Tr-stacking between the aminoindazole and the GK residue, which in the CDKs is Phe, rather than Met. […] For 6 g SU1349, the hydrophobic pendant benzyloxy group points out into solvent, but can form face-to-edge Tr-Tr interactions with Phe 82 and His 84 from the hinge. Exchanging the hydrophobic pendant benzyloxy group for the morpholinoethyl-containing substituent in 5 y SU1336 removes any direct interaction with these hinge residues, preferring to sit in a more solvent-exposed position, as befits a basic side chain that will be protonated at physiological pH (FIG. 12B).
(§2) Black, 4 SU1253; grey, 5 r SU1261; diagonal stripes, 6 g SU1349. […] All tested compounds (4 SU1253, 5 r SU1261 and 6 g SU1349 ) inhibited CDK5 and CDK9 with >80 %.

CDK5 = CDK5 (Homo sapiens, UniProt Q00535); assay: kinome profiling at 1 μM, CDK5; assay type: biochemical; conditions: read-out: % inhibition of CDK5
CDK5, sequence (Q00535 whole entry, species assumed): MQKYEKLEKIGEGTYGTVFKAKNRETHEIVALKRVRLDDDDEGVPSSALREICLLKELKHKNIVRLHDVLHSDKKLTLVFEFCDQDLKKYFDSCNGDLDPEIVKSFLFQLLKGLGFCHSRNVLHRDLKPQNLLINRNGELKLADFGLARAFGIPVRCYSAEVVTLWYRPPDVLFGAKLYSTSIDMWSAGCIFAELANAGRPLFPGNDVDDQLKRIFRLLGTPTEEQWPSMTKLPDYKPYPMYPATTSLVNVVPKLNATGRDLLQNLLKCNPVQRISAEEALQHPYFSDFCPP
CDK5, sequence (Q15078 99-307 partner limits assumed, species assumed): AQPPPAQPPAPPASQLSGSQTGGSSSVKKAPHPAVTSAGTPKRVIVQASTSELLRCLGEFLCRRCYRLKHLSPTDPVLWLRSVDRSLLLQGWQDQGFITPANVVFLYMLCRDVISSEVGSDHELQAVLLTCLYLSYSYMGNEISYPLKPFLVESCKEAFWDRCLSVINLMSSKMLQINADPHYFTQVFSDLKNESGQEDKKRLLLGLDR
Text: as §1, §2

CDK9 = CDK9 (Homo sapiens, UniProt P50750); assay: kinome profiling at 1 μM, CDK9; assay type: biochemical; conditions: read-out: % inhibition of CDK9
CDK9, sequence (P50750 whole entry, species assumed): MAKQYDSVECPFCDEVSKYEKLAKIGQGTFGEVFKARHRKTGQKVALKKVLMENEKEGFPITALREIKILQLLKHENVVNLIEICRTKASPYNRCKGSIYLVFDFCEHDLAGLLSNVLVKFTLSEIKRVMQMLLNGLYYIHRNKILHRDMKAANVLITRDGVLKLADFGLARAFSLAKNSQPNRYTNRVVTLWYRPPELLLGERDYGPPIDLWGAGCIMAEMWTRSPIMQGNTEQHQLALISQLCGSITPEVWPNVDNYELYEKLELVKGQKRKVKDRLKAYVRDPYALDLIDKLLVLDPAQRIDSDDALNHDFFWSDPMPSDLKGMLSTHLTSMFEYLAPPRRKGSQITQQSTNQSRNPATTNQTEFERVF
CDK9, sequence (O60563 whole entry partner, species assumed): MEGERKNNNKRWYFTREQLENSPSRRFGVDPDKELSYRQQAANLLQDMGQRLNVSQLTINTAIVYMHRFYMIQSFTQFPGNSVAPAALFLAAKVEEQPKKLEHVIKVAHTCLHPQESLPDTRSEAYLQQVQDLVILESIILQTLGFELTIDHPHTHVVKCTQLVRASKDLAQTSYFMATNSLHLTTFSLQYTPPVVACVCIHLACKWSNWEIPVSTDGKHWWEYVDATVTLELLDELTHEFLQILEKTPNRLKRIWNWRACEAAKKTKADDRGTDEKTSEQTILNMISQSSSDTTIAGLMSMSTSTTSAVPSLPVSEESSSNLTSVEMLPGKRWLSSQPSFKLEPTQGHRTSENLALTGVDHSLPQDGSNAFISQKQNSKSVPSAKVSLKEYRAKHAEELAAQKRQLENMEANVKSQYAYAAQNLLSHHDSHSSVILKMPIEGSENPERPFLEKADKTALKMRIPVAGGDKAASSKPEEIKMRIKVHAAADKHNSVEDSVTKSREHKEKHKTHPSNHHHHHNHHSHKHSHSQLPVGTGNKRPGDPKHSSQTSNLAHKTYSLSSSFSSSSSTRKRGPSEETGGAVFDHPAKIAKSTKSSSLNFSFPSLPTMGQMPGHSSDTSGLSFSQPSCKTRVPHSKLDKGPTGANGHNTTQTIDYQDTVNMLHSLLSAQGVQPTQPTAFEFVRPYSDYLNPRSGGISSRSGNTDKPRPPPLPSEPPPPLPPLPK
Text: as §1, §2

IKKβ = target: T2, IKKβ (Homo sapiens, UniProt O14920); assay: in-house DELFIA kinase assay, IKKβ; assay type: biochemical
T2 sequence (O14920 1-756): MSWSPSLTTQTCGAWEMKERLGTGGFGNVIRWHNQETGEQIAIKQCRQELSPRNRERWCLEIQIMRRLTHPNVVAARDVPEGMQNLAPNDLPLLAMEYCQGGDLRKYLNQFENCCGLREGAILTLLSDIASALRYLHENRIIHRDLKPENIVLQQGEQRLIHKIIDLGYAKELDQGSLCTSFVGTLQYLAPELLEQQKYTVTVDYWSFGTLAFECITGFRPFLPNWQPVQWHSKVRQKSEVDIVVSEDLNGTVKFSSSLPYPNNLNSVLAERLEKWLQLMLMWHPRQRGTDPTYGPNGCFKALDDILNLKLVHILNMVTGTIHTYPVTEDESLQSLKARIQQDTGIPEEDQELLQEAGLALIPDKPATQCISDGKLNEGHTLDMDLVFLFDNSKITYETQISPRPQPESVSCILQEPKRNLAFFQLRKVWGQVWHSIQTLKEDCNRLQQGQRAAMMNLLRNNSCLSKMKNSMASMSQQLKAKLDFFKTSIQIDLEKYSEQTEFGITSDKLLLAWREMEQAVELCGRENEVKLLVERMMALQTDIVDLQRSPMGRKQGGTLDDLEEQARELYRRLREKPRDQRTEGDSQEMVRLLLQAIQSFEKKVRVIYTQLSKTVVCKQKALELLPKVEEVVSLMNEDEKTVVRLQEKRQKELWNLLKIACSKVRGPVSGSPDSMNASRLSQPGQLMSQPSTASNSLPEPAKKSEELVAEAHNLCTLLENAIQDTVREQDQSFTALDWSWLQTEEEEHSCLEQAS
Text: (§3) To examine the pyrrolo[2,3 -b]pyridines as an alternative scaffold, we adopted the AIPP core because it had similar dimensions to 1 SU909, with HBD/HBA motifs positioned at the scaffold extremities to interact with both the hinge region and the G-loop wall of IKKα, a rationale we had previously proposed as the basis for imparting selectivity. A preliminary set of AIPP derivatives was designed to explore its utility as an IKK-targeting scaffold, whilst incorporating additional functionality through which to introduce selectivity for the IKKα isoform (2-4 SU1087, SU1266 and SU1253; FIG. 3). This was achieved by initially adopting two different approaches: either appending a hydrophobic moiety to the pyrrolo[2,3 -b]pyridine motif as a fused form to afford the tricyclic derivatives 2 and 3 SU1266 and SU1087, or as a phenyl substituent to introduce flexibility with the central pyrrolo[2,3 -b]pyridine moiety in 4 SU1253 .

IKKα [3] = target: T1, IKKα; assay: in-house DELFIA kinase assay, IKKα; assay type: biochemical
Text: as §3, with “SU1253 . […] The pyrrolo[2,3 -b]pyridine was bound to the hinge region in the classical HBA/HBD motif with the GK+3 NH and C═O backbone, whilst the aminoindazole projected towards the top of the pocket to interact with the G-loop (FIG. 4A). […] In both isoforms, the 2 -phenyl moiety was oriented out from the hinge towards the exposed solvent area.” for “SU1253 .”

Turbidimetric solubility = assay type: physicochemical
[4] = mouse hepatocyte clearance (cryopreserved pooled mouse CD1 hepatocytes); assay type: in vitro ADME; conditions: mouse, hepatocytes; 1 μM; 0.5×10^6 cells/mL; 37° C.
Method: Pharmacokinetic studies were contracted to Sygnature Discovery Limited. Intrinsic clearance and half life were determined using cryopreserved pooled mouse CD1 hepatocytes. Test compounds were analysed at 1 μM in Williams Media E buffer (0.01 % DMSO) at a cell density of 0.5×10^6 cells mL^−1 . Cells were incubated at 37° C. for one hour with shaking and compound depletion was measured by LC-MS/MS at six timepoints (0.25, 5, 10, 20, 40, and 60 minutes).

IKKα over IKKβ [5] = assay: selectivity for IKKα over IKKβ from the kinase assay; assay type: biochemical
Text: as §3, with “SU1253 . […] The pyrrolo[2,3 -b]pyridine was bound to the hinge region in the classical HBA/HBD motif with the GK+3 NH and C═O backbone, whilst the aminoindazole projected towards the top of the pocket to interact with the G-loop (FIG. 4A). […] In both isoforms, the 2 -phenyl moiety was oriented out from the hinge towards the exposed solvent area.” for “SU1253 .”
To shift the selectivity profile towards IKKα, we selected 4 SU1253 for structural optimization based on the notion that sigma-bond rotation between the phenyl ring and the pyrrolo[2,3 -b]pyridine would inbuild the flexibility required to engage with the three dimensional array of residues nearby to exploit differences between the two isoforms. Furthermore, this would enable the inclusion of moieties that could also project into solvent and address solubility considerations. Small groups (NH2, OH, OMe, OEt and F) were initially introduced into the phenyl ring to evaluate their impact on the selectivity profile against both IKKs (5 a-g SU1354 -SU1373, Table 2 ). Our goal was to achieve a 1:50 selectivity ratio of IKKα to IKKβ, with a minimum IKKβ inhibitory Ki of 500 nM.

| inhibition at 1 µM (CDK5) | inhibition at 1 µM (CDK9) | Ki (IKKβ) | Ki (IKKα [3]) | solubility, in words (Turbidimetric solubility) | hepatocyte CLint [4] | IKKβ inhibition, in words (IKKβ) | selectivity for IKKα over IKKβ, in words (IKKα over IKKβ [5]) | SMILES | Ki (IKKα [1]) | selective inhibition of IKKα, in words (IKKα over IKKβ [2]) | selectivity in U2OS cells, in words (U2OS cells) | kinome selectivity, in words (panel of kinases) | number of kinases inhibited by >80 % (panel of kinases; panel of 231 kinases) | number of kinases inhibited by >80 % (panel of kinases; panel of 253 kinases (FIG. 11)) |
| --- | --- | --- | --- | --- | --- | --- | --- | --- | --- | --- | --- | --- | --- | --- |
| – | – | – | – | – | – | – | – | N#Cc1c[nH]c2nc(N)nc(-c3ccc(S(N)(=O)=O)cc3)c12 [1 SU909] | 80 nM | selective inhibitor of IKKα | recapitulated this discrimination in U2OS cells | – | – | – |
| > 80% | > 80% | 15 nM | 3 nM | – | – | – | – | Nc1n[nH]c2ccc(-c3ccnc4[nH]c(-c5ccccc5)cc34)cc12 [4 SU1253, 5-(2 -Phenyl-1 H-pyrrolo[2,3-b]pyridin-4-yl)-1 H-indazol-3-amine] | – | – | – | very promiscuous | 44 kinases | 46 kinases |
| – | – | 12 nM | 6 nM | requisite solubility | 11 µL/min/1e6 cells | potent inhibition against IKKβ | equipotent against both isoforms | Nc1n[nH]c2ccc(-c3ccnc4[nH]c(-c5ccnc(OCc6ccncc6)c5)cc34)cc12 [6k SU1628, 5-(2-(2-(Pyridin-4-ylmethoxy)pyridin-4-yl)-1 H-pyrrolo[2,3-b]pyridin-4-yl)-1 H-indazol-3-amine] | – | – | – | – | – | – |

Source: patent US20260315487A1, “IKK-ALPHA INHIBITORS” (Cancer Research Technology Limited, priority 2023, published 2026)
